For eight compounds, IC50 results are on record in patent US20260070945A1, “MACROCYCLIC IMMUNOMODULATORS” (Bristol-Myers Squibb Company, priority 2022, published 2026).

Where a SMILES comes first, the peptide text is derived from it. Bridges are numbered along the chain shown (N, C = ends). [ ]: non-standard residue; d: D form. The star is where a group is joined. ξ: configuration not given here. Phe(4-CH2CH2COOH) = N[C@@H](Cc1ccc(CCC(=O)O)cc1)C(=O)O; Phe(3-CF3) = N[C@@H](Cc1cccc(C(F)(F)F)c1)C(=O)O; Phe(4-CF3) = N[C@@H](Cc1ccc(C(F)(F)F)cc1)C(=O)O; Phe(4-COOH) = N[C@@H](Cc1ccc(C(=O)O)cc1)C(=O)O; Bip = N[C@@H](Cc1ccc(-c2ccccc2)cc1)C(=O)O; Phe(3-F) = N[C@@H](Cc1cccc(F)c1)C(=O)O; Phe(3-Me) = Cc1cccc(C[C@H](N)C(=O)O)c1; Val(3-OH) = CC(C)(O)[C@H](N)C(=O)O; Cha = N[C@@H](CC1CCCCC1)C(=O)O; Ile(3ξ) = CCC(C)[C@H](N)C(=O)O; Carboxymethyl = O=C(O)C*; NMeA = CN[C@@H](C)C(=O)O; Aun = NCCCCCCCCCCC(=O)O; Dab = NCC[C@H](N)C(=O)O; AEEA = NCCOCCOCC(=O)O

The term IC50 denotes the concentration that inhibits the measured activity by half.

The target of this test is T1, PD-1/PD-L1 interaction (PE-labeled human PD-L1-Ig binding to Jurkat cell line over-expressing human PD-1) (Homo sapiens, UniProt Q15116).
T1 construct: expressed in transfected cells; host or cells: Jurkat
T1 sequence (Q15116 25-288): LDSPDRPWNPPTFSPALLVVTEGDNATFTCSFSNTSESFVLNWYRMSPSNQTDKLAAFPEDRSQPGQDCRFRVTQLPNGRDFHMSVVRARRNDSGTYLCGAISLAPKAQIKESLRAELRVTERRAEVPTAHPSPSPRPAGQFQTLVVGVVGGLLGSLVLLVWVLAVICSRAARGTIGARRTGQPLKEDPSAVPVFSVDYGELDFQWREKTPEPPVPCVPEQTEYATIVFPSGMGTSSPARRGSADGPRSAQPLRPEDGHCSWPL
As to the kind of experiment: Jurkat-PD-1 Cell Binding High-Content Screening Assay (CBA). To be noted: PE-labeled PD-L1-Ig 20 nM final, Jurkat-hPD-1 cells; read-out: Jurkat HPD1 PDL1 IC50. The essentials: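 High-content imaging read-out of PE-PD-L1-Ig binding (20 nM final, 1 h) to Jurkat-hPD-1 cells, after 2 h compound exposure at 37 °C in DMEM with 10% FCS. Nuclei counterstained with Hoechst 33342 after paraformaldehyde fixation.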
With `CCC(C)[C@@H]1NC(=O)[C@H](Cc2ccc(-c3ccccc3)cc2)NC(=O)[C@H](C(C)C)NC(=O)[C@H](Cc2c[nH]c3ccccc23)NC(=O)[C@H](CC(=O)O)NC(=O)[C@H](Cc2ccc(OCC(=O)O)cc2)NC(=O)[C@H](Cc2cnc[nH]2)NC(=O)CSC[C@@H](C(=O)N[C@@H](CCN)C(=O)NCCOCCOCC(=O)NCCCCCCCCCCC(=O)O)NC(=O)[C@H](CCC(=O)O)NC(=O)[C@H](C(C)(C)O)NC(=O)[C@H](CC2CCCCC2)NC(=O)[C@H](CCN)NC(=O)[C@@H](CC(C)C)NC(=O)[C@H](C)N(C)C1=O` (stereo partly drawn) [Example 2591] ({CH2CO}-HY(Carboxymethyl)DWV[Bip][Ile(3ξ)][NMeA][dL][Dab][Cha][Val(3-OH)]EC[Dab][AEEA][Aun]-OH; thioether N-14), the IC50 was 3.1 nM.

In the case of `CCC(C)[C@@H]1NC(=O)[C@H](Cc2ccc(-c3ccccc3)cc2)NC(=O)[C@H](Cc2ccc(C(F)(F)F)cc2)NC(=O)[C@H](Cc2cccc(F)c2)NC(=O)[C@H](CC(=O)O)NC(=O)[C@H](Cc2ccc(OCC(=O)O)cc2)NC(=O)[C@H](Cc2cnc[nH]2)NC(=O)CSC[C@@H](C(=O)N[C@@H](CCN)C(=O)NCCOCCOCC(=O)NCCCCCCCCCCC(=O)O)NC(=O)[C@H](CCC(=O)O)NC(=O)[C@H](C(C)C)NC(=O)[C@H](CC2CCCCC2)NC(=O)[C@H](CCN)NC(=O)[C@@H](CC(C)C)NC(=O)[C@H](C)N(C)C1=O` (stereo partly drawn) [Example 2592] ({CH2CO}-HY(Carboxymethyl)D[Phe(3-F)][Phe(4-CF3)][Bip][Ile(3ξ)][NMeA][dL][Dab][Cha]VEC[Dab][AEEA][Aun]-OH; thioether N-14), the 50% inhibitory concentration (IC50) was 89.6 nM.

For the compound `CC(=O)NCCCC[C@@H]1NC(=O)[C@H](C(C)(C)O)NC(=O)[C@H](CC2CCCCC2)NC(=O)[C@H](CCN)NC(=O)[C@@H](CC(C)C)NC(=O)[C@H](C)N(C)C(=O)[C@H](CCC(N)=O)NC(=O)[C@H](Cc2ccc(-c3ccccc3)cc2)NC(=O)[C@H](Cc2ccc(C(F)(F)F)cc2)NC(=O)[C@H](Cc2cccc(C)c2)NC(=O)[C@H](CC(=O)O)NC(=O)[C@H](Cc2ccc(OCC(=O)O)cc2)NC(=O)[C@H](Cc2ccc(OCC(=O)O)cc2)NC(=O)CSC[C@@H](C(=O)N[C@@H](CCN)C(=O)NCCOCCOCC(=O)NCCCCCCCCCCC(=O)O)NC1=O` [Example 2593] ({CH2CO}-Y(Carboxymethyl)Y(Carboxymethyl)D[Phe(3-Me)][Phe(4-CF3)][Bip]Q[NMeA][dL][Dab][Cha][Val(3-OH)]K(Ac)C[Dab][AEEA][Aun]-OH; thioether N-14), the 50% inhibitory concentration (IC50) stood at 9 nM.

With `CC(=O)NCCCC[C@@H]1NC(=O)[C@H](C(C)(C)O)NC(=O)[C@H](CC2CCCCC2)NC(=O)[C@H](CCN)NC(=O)[C@@H](CC(C)C)NC(=O)[C@H](C)N(C)C(=O)[C@H](Cc2ccc(C(F)(F)F)cc2)NC(=O)[C@H](Cc2ccc(-c3ccccc3)cc2)NC(=O)[C@H](Cc2ccc(C(=O)O)cc2)NC(=O)[C@H](Cc2cccc(C)c2)NC(=O)[C@H](CC(=O)O)NC(=O)[C@H](Cc2ccc(OCC(=O)O)cc2)NC(=O)[C@H](Cc2ccc(OCC(=O)O)cc2)NC(=O)CSC[C@@H](C(=O)N[C@@H](CCN)C(=O)NCCOCCOCC(=O)NCCCCCCCCCCC(=O)O)NC1=O` [Example 2594] ({CH2CO}-Y(Carboxymethyl)Y(Carboxymethyl)D[Phe(3-Me)][Phe(4-COOH)][Bip][Phe(4-CF3)][NMeA][dL][Dab][Cha][Val(3-OH)]K(Ac)C[Dab][AEEA][Aun]-OH; thioether N-14), the IC50 stood at 5.7 nM.

Regarding `CC(=O)NCCCC[C@@H]1NC(=O)[C@H](C(C)(C)O)NC(=O)[C@H](CC2CCCCC2)NC(=O)[C@H](CCN)NC(=O)[C@@H](CC(C)C)NC(=O)[C@H](C)N(C)C(=O)[C@H](CCC(N)=O)NC(=O)[C@H](Cc2ccc(-c3ccccc3)cc2)NC(=O)[C@H](Cc2ccc(C(=O)O)cc2)NC(=O)[C@H](Cc2cccc(C)c2)NC(=O)[C@H](CC(=O)O)NC(=O)[C@H](Cc2ccc(C(F)(F)F)cc2)NC(=O)[C@H](Cc2ccc(OCC(=O)O)cc2)NC(=O)CSC[C@@H](C(=O)N[C@@H](CCN)C(=O)NCCOCCOCC(=O)NCCCCCCCCCCC(=O)O)NC1=O` [Example 2595] ({CH2CO}-Y(Carboxymethyl)[Phe(4-CF3)]D[Phe(3-Me)][Phe(4-COOH)][Bip]Q[NMeA][dL][Dab][Cha][Val(3-OH)]K(Ac)C[Dab][AEEA][Aun]-OH; thioether N-14), the IC50 was 11.7 nM.

For `CC(=O)NCCCC[C@@H]1NC(=O)[C@H](C(C)(C)O)NC(=O)[C@H](CC2CCCCC2)NC(=O)[C@H](CCN)NC(=O)[C@@H](CC(C)C)NC(=O)[C@H](C)N(C)C(=O)[C@H](CCC(N)=O)NC(=O)[C@H](Cc2ccc(-c3ccccc3)cc2)NC(=O)[C@H](Cc2ccc(C(=O)O)cc2)NC(=O)[C@H](Cc2cccc(C)c2)NC(=O)[C@H](CC(=O)O)NC(=O)[C@H](Cc2ccc(OCC(=O)O)cc2)NC(=O)[C@H](Cc2ccc(C(F)(F)F)cc2)NC(=O)CSC[C@@H](C(=O)N[C@@H](CCN)C(=O)NCCOCCOCC(=O)NCCCCCCCCCCC(=O)O)NC1=O` [Example 2596] ({CH2CO}-[Phe(4-CF3)]Y(Carboxymethyl)D[Phe(3-Me)][Phe(4-COOH)][Bip]Q[NMeA][dL][Dab][Cha][Val(3-OH)]K(Ac)C[Dab][AEEA][Aun]-OH; thioether N-14), the IC50 was determined as 2.7 nM.

Consider `CC(=O)NCCCC[C@@H]1NC(=O)[C@H](C(C)(C)O)NC(=O)[C@H](CC2CCCCC2)NC(=O)[C@H](CCN)NC(=O)[C@@H](CC(C)C)NC(=O)[C@H](C)N(C)C(=O)[C@H](CCC(N)=O)NC(=O)[C@H](Cc2ccc(-c3ccccc3)cc2)NC(=O)[C@H](Cc2ccc(CCC(=O)O)cc2)NC(=O)[C@H](Cc2cccc(C(F)(F)F)c2)NC(=O)[C@H](CC(=O)O)NC(=O)[C@H](Cc2ccc(OCC(=O)O)cc2)NC(=O)[C@H](Cc2ccc(OCC(=O)O)cc2)NC(=O)CSC[C@@H](C(=O)N[C@@H](CCN)C(=O)NCCOCCOCC(=O)NCCCCCCCCCCC(=O)O)NC1=O` [Example 2597] ({CH2CO}-Y(Carboxymethyl)Y(Carboxymethyl)D[Phe(3-CF3)][Phe(4-CH2CH2COOH)][Bip]Q[NMeA][dL][Dab][Cha][Val(3-OH)]K(Ac)C[Dab][AEEA][Aun]-OH; thioether N-14), for which the half-maximal inhibitory concentration (IC50) stood at 3.3 nM.

On to `CC(=O)NCCCC[C@@H]1NC(=O)[C@H](C(C)C)NC(=O)[C@H](CC2CCCCC2)NC(=O)[C@H](CCN)NC(=O)[C@@H](CC(C)C)NC(=O)[C@H](C)N(C)C(=O)[C@H](CCC(N)=O)NC(=O)[C@H](Cc2ccc(-c3ccccc3)cc2)NC(=O)[C@H](Cc2ccc(C(=O)O)cc2)NC(=O)[C@H](Cc2cccc(C(F)(F)F)c2)NC(=O)[C@H](CC(=O)O)NC(=O)[C@H](Cc2ccc(OCC(=O)O)cc2)NC(=O)[C@H](Cc2ccc(OCC(=O)O)cc2)NC(=O)CSC[C@@H](C(=O)N[C@@H](CCN)C(=O)NCCOCCOCC(=O)NCCCCCCCCCCC(=O)O)NC1=O` [Example 2598] ({CH2CO}-Y(Carboxymethyl)Y(Carboxymethyl)D[Phe(3-CF3)][Phe(4-COOH)][Bip]Q[NMeA][dL][Dab][Cha]VK(Ac)C[Dab][AEEA][Aun]-OH; thioether N-14), for which the IC50 stood at 2.8 nM.
